Data from patent US10428080B2, “TBK/IKK inhibitor compounds and uses thereof” (Merck Patent GmbH, priority 2015, dated 2019).
pIC50: −log10 of the molar value. Structures can show the parent of a compound that is named as a salt.

Assays:
TBK1 = molecular target: T1, TBK1 (Homo sapiens, UniProt Q9UHD2); assay: TBK Biochemical Assay; details: read-out: TBK1 IC50
T1 sequence (Q9UHD2 1-729): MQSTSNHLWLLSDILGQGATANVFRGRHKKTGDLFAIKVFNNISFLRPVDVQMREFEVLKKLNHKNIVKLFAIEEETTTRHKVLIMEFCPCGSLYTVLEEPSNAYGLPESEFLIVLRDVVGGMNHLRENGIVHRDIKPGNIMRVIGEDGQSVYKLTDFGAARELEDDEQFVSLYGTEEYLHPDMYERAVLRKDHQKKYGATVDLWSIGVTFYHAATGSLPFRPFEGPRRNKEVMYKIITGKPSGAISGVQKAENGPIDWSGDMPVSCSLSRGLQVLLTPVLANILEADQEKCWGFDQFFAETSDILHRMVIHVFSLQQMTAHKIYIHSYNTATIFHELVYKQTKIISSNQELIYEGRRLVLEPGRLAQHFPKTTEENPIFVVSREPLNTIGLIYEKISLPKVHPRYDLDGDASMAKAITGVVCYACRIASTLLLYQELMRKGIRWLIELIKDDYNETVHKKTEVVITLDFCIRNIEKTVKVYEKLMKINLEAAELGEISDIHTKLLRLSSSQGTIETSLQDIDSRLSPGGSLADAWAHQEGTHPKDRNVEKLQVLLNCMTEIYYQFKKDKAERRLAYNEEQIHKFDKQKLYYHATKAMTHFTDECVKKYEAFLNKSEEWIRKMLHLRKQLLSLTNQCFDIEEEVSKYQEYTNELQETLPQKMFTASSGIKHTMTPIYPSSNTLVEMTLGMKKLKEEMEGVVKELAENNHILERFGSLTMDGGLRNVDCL
Outline: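 Caliper LabChip mobility-shift readout of substrate and product after 90 min of TBK1 reaction at 25° C and stop-buffer addition. Compounds tested in 1:4 serial dilution over 10 points from 30 uM final at 1% DMSO; staurosporine 10 uM final defines full inhibition.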

IKKε = molecular target: T2, IKKε (Homo sapiens, UniProt Q14164); assay: IKKe Biochemical Assay; details: read-out: IKKε IC50
T2 sequence (Q14164 1-716): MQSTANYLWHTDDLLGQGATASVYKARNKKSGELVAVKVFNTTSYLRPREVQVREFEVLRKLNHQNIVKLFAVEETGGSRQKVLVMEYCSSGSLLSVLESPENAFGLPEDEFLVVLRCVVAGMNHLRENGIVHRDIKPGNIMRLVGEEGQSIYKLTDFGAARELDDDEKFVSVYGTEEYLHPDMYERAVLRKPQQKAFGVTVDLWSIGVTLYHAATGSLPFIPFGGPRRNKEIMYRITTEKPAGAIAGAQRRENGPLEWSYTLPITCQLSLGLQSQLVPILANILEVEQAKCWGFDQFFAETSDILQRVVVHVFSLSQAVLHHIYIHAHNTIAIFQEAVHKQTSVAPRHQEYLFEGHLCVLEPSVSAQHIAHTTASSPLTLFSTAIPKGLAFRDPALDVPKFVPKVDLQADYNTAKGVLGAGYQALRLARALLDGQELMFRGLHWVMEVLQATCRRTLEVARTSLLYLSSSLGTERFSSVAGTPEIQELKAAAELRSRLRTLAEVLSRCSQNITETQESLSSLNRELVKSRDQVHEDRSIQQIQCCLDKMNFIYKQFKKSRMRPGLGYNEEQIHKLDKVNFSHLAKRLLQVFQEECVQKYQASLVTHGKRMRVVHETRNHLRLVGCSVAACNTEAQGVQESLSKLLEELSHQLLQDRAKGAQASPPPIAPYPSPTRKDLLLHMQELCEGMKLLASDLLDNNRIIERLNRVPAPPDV
Outline: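 Activity was measured as mobility-shift separation of phosphorylated from unphosphorylated substrate on a LabChip EZ Reader. Compound was titrated from 30 uM final in 10 points, 1:4 steps, with 1% DMSO, and enzyme plus substrate reacted 90 min at 25° C before stop buffer. Control wells held 10 uM staurosporine.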

pIC50 (TBK1)	pIC50 (IKKε)	SMILES
6.00 to 7.00	> 7.00	COc1cc(C(=O)N(C)C)ccc1-c1cc2nccc(-c3ccc(OC4CCN(C(C)C)C4)c(C#N)c3)c2o1 (stereo not drawn) [Compound 157, 4-{7-[3-Cyano-4-(1-isopropyl-pyrrolidin-3-yloxy)-phenyl]-furo[3,2-b]pyridin-2-yl}-3-methoxy-N,N-dimethyl-benzamide]
> 7.00	> 7.00	COc1cc(C(=O)N(C)C)ccc1-c1cc2nccc(-c3ccc(OC4CNC4)c(C#N)c3)c2o1 [Compound 128, 4-{7-[4-(Azetidin-3-yloxy)-3-cyano-phenyl]-furo[3,2-b]pyridin-2-yl}-3-methoxy-N,N-dimethyl-benzamide]
6.00 to 7.00	6.00 to 7.00	COc1cc(C(=O)N(C)CCO)cnc1-c1cc2ncc(OC)c(-c3ccc(OC4CCOCC4)c(C#N)c3)c2o1 [Compound 343, 6-[7-[3-cyano-4-(oxan-4-yloxy)phenyl]-6-methoxyfuro[3,2-b]pyridin-2-yl]-N-(2-hydroxyethyl)-5-methoxy-N-methylpyridine-3-carboxamide]
> 7.00	> 7.00	COc1cc(C(=O)N(C)C)ccc1-c1cc2nccc(-c3ccc(O[C@H]4[C@H](C)COC[C@@H]4C)c(C#N)c3)c2o1 [Compound 232, 4-(7-(3-cyano-4-(3,5-dimethyl-tetrahydro-2H-pyran-4-yloxy)phenyl)furo[3,2-b]pyridin-2-yl)-3-methoxy-N,N-dimethylbenzamide]
6.00 to 7.00	6.00 to 7.00	CN(C)C(=O)c1cnc(-c2cc3nccc(-c4ccc(NC5CCOCC5)c(C#N)c4)c3o2)c(F)c1 [Compound 249, 6-(7-(3-cyano-4-(tetrahydro-2H-pyran-4-ylamino)phenyl)furo[3,2-b]pyridin-2-yl)-5-fluoro-N,N-dimethylnicotinamide]
5.30 to 6.00	6.00 to 7.00	CC1CC(Oc2ccc(-c3ccnc4cc(-c5ccc(C(=O)N(C)C)cc5)oc34)cc2C#N)CCO1 (stereo not drawn) [Compound 184, 4-{7-[3-Cyano-4-(2-methyl-tetrahydro-pyran-4-yloxy)-phenyl]-furo[3,2-b]pyridin-2-yl}-N,N-dimethyl-benzamide]
6.00 to 7.00	6.00 to 7.00	COc1cc(-c2cc3nccc(-c4ccc(NC5CCOCC5)c(C#N)c4)c3o2)ncc1C(=O)N(C)C [Compound 392, 6-(7-[3-cyano-4-[(oxan-4-yl)amino]phenyl]furo[3,2-b]pyridin-2-yl)-4-methoxy-N,N-dimethylpyridine-3-carboxamide]
6.00 to 7.00	6.00 to 7.00	COc1cc(C(=O)N(C)C)ccc1-c1cc2ncc(Cl)c(-c3ccc(OC4CCOCC4)c(C#N)c3)c2o1 [Compound 265, 4-(6-chloro-7-(3-cyano-4-(tetrahydro-2H-pyran-4-yloxy)phenyl)furo[3,2-b]pyridin-2-yl)-3-methoxy-N,N-dimethylbenzamide]
6.00 to 7.00	6.00 to 7.00	COc1cc(C(=O)NCC2CCCCC2(F)F)ccc1-c1cc2nccc(-c3ccc(NC4CCOCC4)c(C#N)c3)c2o1 (stereo not drawn) [Compound 180, 4-{7-[3-Cyano-4-(tetrahydro-pyran-4-ylamino)-phenyl]-furo[3,2-b]pyridin-2-yl}-N-(2,2-difluoro-cyclohexylmethyl)-3-methoxy-benzamide]
< 5.30	< 5.30	CN(C)C(=O)c1ccc(-c2cc3nccc(-c4ccc(C5(N6CCOCC6)CC5)c(C#N)c4)c3o2)cc1 [Compound 287, 4-(7-[3-cyano-4-[1-(morpholin-4-yl)cyclopropyl]phenyl]furo[3,2-b]pyridin-2-yl)-N,N-dimethylbenzamide hydrochloride]
6.00 to 7.00	5.30 to 6.00	COc1cc(C(=O)N(C)C)cnc1-c1cc2ncc(OC)c(-c3ccc(NC4CCOCC4)c(C#N)c3)c2o1 [Compound 340, 6-(7-[3-cyano-4-[(oxan-4-yl)amino]phenyl]-6-methoxyfuro[3,2-b]pyridin-2-yl)-5-methoxy-N,N-dimethylpyridine-3-carboxamide]
> 7.00	> 7.00	COc1cc(C(=O)N2CCC(C)(O)C2)ccc1-c1cc2nccc(-c3ccc(OC4CCOCC4)c(C#N)c3)c2o1 (stereo not drawn) [Compound 19, 5-{2-[4-(3-Hydroxy-3-methyl-pyrrolidine-1-carbonyl)-2-methoxy-phenyl]-furo[3,2-b]pyridin-7-yl}-2-(tetrahydro-pyran-4-yloxy)-benzonitrile]
> 7.00	> 7.00	COc1cc(C(=O)NC2CCOCC2F)ccc1-c1cc2nccc(-c3ccc(NC4CCOCC4)c(C#N)c3)c2o1 (stereo not drawn) [Compound 132, 4-{7-[3-Cyano-4-(tetrahydro-pyran-4-ylamino)-phenyl]-furo[3,2-b]pyridin-2-yl}-N-(3-fluoro-tetrahydro-pyran-4-yl)-3-methoxy-benzamide]
> 7.00	> 7.00	COc1cc(C(=O)NCC2CCCCC2(F)F)ccc1-c1cc2nccc(-c3ccc(OC4CCOCC4)c(C#N)c3)c2o1 (stereo not drawn) [Compound 151, 4-{7-[3-Cyano-4-(tetrahydro-pyran-4-yloxy)-phenyl]-furo[3,2-b]pyridin-2-yl}-N-(2,2-difluoro-cyclohexylmethyl)-3-methoxy-benzamide]
> 7.00	> 7.00	COc1cc(C(=O)N(C)CCCO)ccc1-c1cc2nccc(-c3ccc(OC4CCOCC4)c(C#N)c3)c2o1 [Compound 258, 4-(7-(3-cyano-4-(tetrahydro-2H-pyran-4-yloxy)phenyl)furo[3,2-b]pyridin-2-yl)-N-(3-hydroxypropyl)-3-methoxy-N-methylbenzamide hydrochloride]
> 7.00	> 7.00	COc1cc(C(=O)N(C)C2CCN(C)C2)ccc1-c1cc2nccc(-c3ccc(OC4CCOCC4)c(C#N)c3)c2o1 (stereo not drawn) [Compound 61, 4-{7-[3-Cyano-4-(tetrahydro-pyran-4-yloxy)-phenyl]-furo[3,2-b]pyridin-2-yl}-3-methoxy-N-methyl-N-(1-methyl-pyrrolidin-3-yl)-benzamide]
> 7.00	> 7.00	COc1cc(C(=O)NC2C3COCC32)ncc1-c1cc2nccc(-c3ccc(N4CC[C@@H](F)C4)c(C#N)c3)c2o1 (stereo partly drawn) [Compound 469, 5-(7-[3-cyano-4-[(3R)-3-fluoropyrrolidin-1-yl]phenyl]furo[3,2-b]pyridin-2-yl)-4-methoxy-N-[3-oxabicyclo[3.1.0]hexan-6-yl]pyridine-2-carboxamide]
< 5.30	< 5.30	COc1cc(C(=O)N(C)C)ccc1-c1cc2nccc(-c3ccc(OC4CCN(C(=O)OC(C)(C)C)CC4)c(C#N)c3)c2o1 [Compound 182]
> 7.00	> 7.00	COc1cc(C(=O)N(C)C)cnc1-c1cc2nccc(-c3ccc(NC4CCOCC4)c(C#N)c3)c2o1 [Compound 270, 6-(7-(3-cyano-4-(tetrahydro-2H-pyran-4-ylamino)phenyl)furo[3,2-b]pyridin-2-yl)-5-methoxy-N,N-dimethylnicotinamide hydrochloride]
> 7.00	> 7.00	COc1nc(C(=O)N(C)C)ccc1-c1cc2nccc(-c3ccc(OC4CCOCC4)c(C#N)c3)c2o1 [Compound 271, 5-(7-(3-cyano-4-(tetrahydro-2H-pyran-4-yloxy)phenyl)furo[3,2-b]pyridin-2-yl)-6-methoxy-N,N-dimethylpicolinamide]
6.00 to 7.00	6.00 to 7.00	C[C@@H]1COC[C@@H](C)C1Oc1ccc(-c2ccnc3cc(-c4ccc(C(=O)N(C)C)cc4)oc23)cc1C#N (single isomer, unassigned) [Compound 220, 4-(7-(3-cyano-4-(3,5-dimethyl-tetrahydro-2H-pyran-4-yloxy)phenyl)furo[3,2-b]pyridin-2-yl)-N,N-dimethylbenzamide hydrochloride]
